Source: US11998600B2, “Enhancing the therapeutic activity of an immune checkpoint inhibitor” (MaineHealth, priority 2015, dated 2024)

Experiments:
chick embryos = experiment: Circulating Mab XL313 reactive epitope in chick embryo serum, solid-phase ELISA; assay type: in vivo; conditions: serum collected three days after FGF-2 stimulation, FIG. 5A
Procedure: Due to the differential expression and bio-distribution of the RGDKGE (SEQ ID NO. 1) epitope in angiogenic CAM tissues and its expression in macrophage-conditioned medium, it was determined whether a soluble circulating form of this RGDKGE (SEQ ID NO. 1) epitope could be generated. To examine this possibility, chick embryos were either un-treated or stimulated with FGF-2 and serum, and collected three days later. […] In contrast, a (P<0.05) 2-fold increase was detected in the levels of circulating XL313 epitope following FGF-2 stimulation. These findings indicated the differential release of a soluble form of this RGDKGE (SEQ ID NO. 1) containing collagen epitope.

[1] = test system: chick chorioallantoic membrane (CAM); experiment: Chick CAM inflammation assay, induction by RGD collagen peptides; assay type: in vivo; conditions: FGF-2, absence of cortisone acetate; FIG. 5D
Procedure: (§1) The chick chorioallantoic membrane (CAM) assays were carried out with some modifications (19). For all experiments CAMs of 10-day-old chick embryos obtained from Charles River (North Franklin, CT) were separated from the shell membrane. Filter discs either non-treated (inflammation assays) pretreated (angiogenesis assays) with cortisone acetate (3.0 mg/ml) containing RPMI only or FGF-2 (40 ng). CAMs were either non-treated or treated topically with Mab XL313, XL166 or a non-specific control antibody (10 μg/embryo every 24 h for three consecutive treatments). […] At the end of the incubation period the embryos were sacrificed and the CAM tissues were analyzed. Angiogenesis was quantified by counting the number of angiogenic branching blood vessels within the area of the filter disc. The angiogenic index was determined by subtracting the mean number of blood vessel branch points from untreated CAMs from each experimental condition. Eight to twelve embryos were used per condition and experiments were repeated at least three times.
The effects of the soluble RGD containing collagen peptides on inflammation were examined.

[2] = test system: chick chorioallantoic membrane (CAM); experiment: Macrophage infiltration of FGF-2 stimulated CAMs (KUL1 staining); assay type: in vivo; conditions: FGF-2 stimulation, no cortisone acetate; FIG. 3D
Procedure: The chick chorioallantoic membrane (CAM) assays were carried out with some modifications (19). For all experiments CAMs of 10-day-old chick embryos obtained from Charles River (North Franklin, CT) were separated from the shell membrane. Filter discs either non-treated (inflammation assays) pretreated (angiogenesis assays) with cortisone acetate (3.0 mg/ml) containing RPMI only or FGF-2 (40 ng). CAMs were either non-treated or treated topically with Mab XL313, XL166 or a non-specific control antibody (10 μg/embryo every 24 h for three consecutive treatments). For peptide induction experiments, CAMs were stimulated with 100 ng/ml of the RGD peptides (P-1, P-2, P-C) in the presence or absence of the P38MAPK inhibitor, SB202190 (10 μM). At the end of the incubation period the embryos were sacrificed and the CAM tissues were analyzed. Angiogenesis was quantified by counting the number of angiogenic branching blood vessels within the area of the filter disc. The angiogenic index was determined by subtracting the mean number of blood vessel branch points from untreated CAMs from each experimental condition. […]
CAMs examined for accumulation of granulation tissue were harvested, fixed in 4% PFA and paraffin embedded and sectioned (4 μm) and stained with Giemsa. CAM tissues analyzed via immunofluorescence were harvested, embedded with OCT, snap frozen and sectioned (4 μM). […]

[3] = test system: chick chorioallantoic membrane (CAM); experiment: Chick CAM inflammation assay, FGF-2 induced, antibody treatment; assay type: in vivo; conditions: FGF-2 stimulation in the absence of cortisone acetate; FIG. 3E
Procedure: as §1, with “Eight to twelve embryos were used per condition and experiments were repeated at least three times.” left out
The chick CAM has been routinely used to assess inflammation and granulation tissue formation, which are largely dependent on infiltration of chick heterophils (the avian equivalent of neutrophils), macrophages and activated fibroblasts (36,37). To study the potential differential biological impact of RGD epitopes, FGF-2 induced inflammation was examined by carrying out similar experiments in the absence of cortisone acetate and quantifying CAM thickening. […]

PDL-1 = PDL-1 Western blot, M21 melanoma cells attached to αvβ3 ligands; assay type: cell-based, human; conditions: immobilized epitope vs uncoated wells; 15 minute incubation; FIG. 15
Procedure: FIGS. 14A and 14B are blots of integrin αvβ3 expressing melanoma cells (M21 and CLL-49) and FIG. 14C is a blot depicting that endothelial cells (HUVEC) were allowed to attach to well coated with either a non-αvβ3 binding ligand (native collagen-IV) or an αvβ3 binding ligand (denatured collagen-IV). Whole cell lysates were prepared and the relative levels of PDL-1 or loading control β-actin were assessed by Western blot.
Integrin αvβ3 expressing melanoma cells (M21) were seeded on control uncoated wells or wells immobilized with the XL313 cryptic collagen epitope (RGDKGE (SEQ ID NO. 1)). Following a 15 minute incubation cell lysates were prepared. The relative levels of PDL-1 or loading control β-actin were assessed by Western blot.
Integrin αvβ3 expressing melanoma cells M21 (FIG. 14A) and CCL-49 (FIG. 14B) and endothelial cells (HUVEC) (FIG. 14C) were attached to wells coated with either a non-αvβ3 binding ligand (native collagen-IV) or an αvβ3 binding ligand (denatured collagen-IV). Whole cell lysates were prepared and the relative levels of PDL-1 or β-actin loading control were assessed.
Integrin αvβ3 expressing melanoma cells (M21) were seeded onto control uncoated wells or wells immobilized with the XL313 cryptic collagen epitope (RGDKGE (SEQ ID NO. 1)) (FIG. 15). Following an incubation period, cell lysates were prepared and relative levels of PDL-1 were assessed.

Substance | increase in levels of circulating XL313 epitope in serum (chick embryos) [fold] | CAMs exhibiting extensive tissue thickening [1] | macrophage infiltration of the CAMs, enhancement as compared to control [2] | CAMs showing robust formation of thick granulation tissue [3] | levels of PDL-1 protein in M21 melanoma cells on immobilized epitope (PDL-1)
FGF-2: Fibroblast growth factor-2 from R&D Systems, stimulus of CAM angiogenesis and inflammation | 2 | 55%-60% | over 2 fold | approximately 50% | –
RGDKGE (immobilized on wells) [XL313 epitope, αvβ3 ligand] | – | – | – | – | enhanced levels of PDL-1 protein
